Experimental data published in US10532985B2, “Heterocycle and carbocycle derivatives having TRKA inhibitory activity” (Shionogi & Co., Ltd., priority 2014, dated 2020).

molecular target: T1, human TrkA (Homo sapiens, UniProt P04629); assay: Test Example 2-2: Human TrkA Inhibition Assay; format: biochemical; settings: class symbols, read-out: IC50_nM
T1 construct: purchased Lifetechnologies PV3144
Method: Seven point five μL per well of human TrkA (PV3144, Lifetechnologies, final concentration: 1 nmol/L) suspended in the assay buffer (100 mmol/L 4-(2-hydroxyethyl)-1-piperazineethanesulfonic acid (HEPES), 10 mmol/L magnesium chloride, 0.003 vol % Brij-35, 0.004 vol % Tween20 and 1 mmol/L dithiothreitol (DTT)) was applied in a 384 well plate and the plate was pre-incubated for 15 min at room temperature with 0.4 μL of each compound (final concentration: […]) dissolved in DMSO. Then, fluorescent substrate (FL-peptide 27, 760424, PerkinElmer, final concentration: 1.5 μmol/L) and ATP (final concentration […]) dissolved in the assay buffer was added in each well. After the incubation of 120 min at 37° C., fifteen μL of termination buffer (100 mmol/L HEPES, 40 mmol/L ethylenediaminetetraacetic acid (EDTA), 10 mmol/L magnesium chloride, 0.003 vol % Brij-35, 0.004 vol % Tween20, 1 mmol/L DTT and 0.16 vol % Coating Reagent 3) was added in each well to stop the enzyme reaction. Fluorescent intensities (FI) of phosphorylated and non-phosphorylated fluorescent substrates were measured by LabChip EZReader II (Caliper LifeSciences, Inc.), and conversion ratio (CR) was calculated by the following formula-1. The CR in the well applied with DMSO alone was used as a negative control and the CR in the well without applying TrkA was used as a positive control. The inhibitory effect of each compound on TrkA phosphorylation was calculated by the following formula-2. CR (%)=(FI of phosphorylated substrate/(FI of phosphorylated substrate+FI of non-phosphorylated substrate))×100 (Formula-1) Phosphorylation inhibition (%)=(1−(CR with compound treatment−CR of positive control)/(CR of negative control−CR of positive control))×100 (Formula-2) Inhibitory effect on TrkA phosphorylation (%)=(1−(CR in compound treated well−CR in positive control)/(CR in negative control−CR in positive control))×100.
The 50/o inhibitory concentration (IC50) was determined by the logistic regression using the inhibition data in 10 points at a range of 2 μmol/L to 0.1 nmol/L or 200 μmol/L to 10 nmol/L).

T1 sequence (P04629 33-796): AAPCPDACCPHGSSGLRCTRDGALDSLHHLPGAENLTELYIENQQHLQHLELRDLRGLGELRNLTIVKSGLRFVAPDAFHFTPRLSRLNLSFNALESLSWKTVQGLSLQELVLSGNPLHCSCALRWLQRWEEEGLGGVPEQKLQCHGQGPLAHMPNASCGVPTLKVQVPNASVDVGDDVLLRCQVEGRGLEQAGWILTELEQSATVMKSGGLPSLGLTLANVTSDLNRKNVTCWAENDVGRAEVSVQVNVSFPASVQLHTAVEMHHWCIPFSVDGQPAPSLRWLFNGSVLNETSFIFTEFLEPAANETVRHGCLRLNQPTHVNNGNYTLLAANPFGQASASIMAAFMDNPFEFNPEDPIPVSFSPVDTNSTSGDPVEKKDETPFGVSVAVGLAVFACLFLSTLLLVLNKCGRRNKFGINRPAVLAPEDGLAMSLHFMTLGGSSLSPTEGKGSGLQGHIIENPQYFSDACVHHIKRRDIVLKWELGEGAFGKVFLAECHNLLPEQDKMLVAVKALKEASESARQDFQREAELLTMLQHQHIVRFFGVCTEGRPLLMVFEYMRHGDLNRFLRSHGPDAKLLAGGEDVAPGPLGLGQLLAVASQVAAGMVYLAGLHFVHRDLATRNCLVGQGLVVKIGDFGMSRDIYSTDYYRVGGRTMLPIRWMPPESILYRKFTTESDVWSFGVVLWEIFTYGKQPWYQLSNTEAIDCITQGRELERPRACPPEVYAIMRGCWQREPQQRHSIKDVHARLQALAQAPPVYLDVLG

| IC50 [nM] | Compound |
| --- | --- |
| 100 to 1000 | COCCN1C[C@@H](NC(=O)Nc2c(C)c(-c3cnn(C)c3)nn2-c2ccccc2)[C@H](c2ccc3c(c2)COC3)C1 (racemic) [Compound I-274] |

same assay, conditions: human TrkA 1 nmol/L, 120 min at 37° C., read-out: TrkA inhibition IC50

| IC50 [nM] | Compound |
| --- | --- |
| 10 | COCCN1C[C@@H](NC(=O)Nc2c(C)c(-c3cnn(C)c3)nn2-c2ccccc2)[C@H](c2ccc3nonc3c2)C1 (racemic) [Compound I-209] |
| 270 | COCCN1C[C@@H](NC(=O)Nc2c(C)c(-c3cnn(C)c3)nn2-c2ccccc2)[C@H](C2=CCCCC2)C1 (racemic) [Compound I-218] |
| 120 | Cc1c(-c2cnn(C)c2)nn(-c2ccccc2)c1NC(=O)N[C@@H]1C[C@@H](Oc2ccncc2)C[C@H]1c1ccccc1 (racemic) [Compound I-225] |
| 18 | Cc1c(-c2cnn(C)c2)nn(-c2ccccc2)c1NC(=O)N[C@@H]1CN(CCOC(F)F)C[C@H]1c1ccccc1 (racemic) [Compound I-248] |
| 24 | Cc1c(-c2cnn(C)c2)nn(-c2ccccc2)c1NC(=O)N[C@@H]1CN(CCOC2CC2)C[C@H]1c1ccnc(F)c1 (racemic) [Compound I-267] |
| 47 | COCCC1C[C@@H](NC(=O)Nc2c3c(nn2-c2ccccc2)CCC3)[C@H](c2ccccc2)C1 (some centres unmarked) [Compound I-184] |
| 1500 | CC(=O)CN1C[C@@H](NC(=O)Nc2c(C)c(-c3cnn(C)c3)nn2-c2ccccc2)[C@H](c2ccc(F)c(F)c2)C1 [Compound I-185] |

same assay, conditions: human TrkA inhibition, class symbols A/B/C, read-out: IC50_nM

| Compound | IC50 [nM] |
| --- | --- |
| COCCN1C[C@@H](NC(=O)Nc2c(C)c(-c3cnn(C)c3)nn2-c2ccccc2)[C@H](c2ccnc(C3=NC(=O)CS3)c2)C1 (racemic) [Compound I-195] | > 1000 |
| CO[C@@H]1C[C@@H](NC(=O)Nc2c(C)c(-c3cnn(C)c3)nn2-c2ccccc2)[C@H](c2ccccc2)C1 (racemic) [Compound I-210] | 100 to 1000 |
| CCO[C@@H]1C[C@@H](NC(=O)Nc2c(C)c(-c3cnn(C)c3)nn2-c2ccccc2)[C@H](c2ccccc2)C1 (racemic) [Compound I-211] | > 1000 |
| Cc1c(-c2cnn(C)c2)nn(-c2ccccc2)c1NC(=O)N[C@@H]1C[C@@H](Oc2ccccn2)C[C@H]1c1ccccc1 (racemic) [Compound I-223] | > 1000 |
| COCCN1C[C@@H](NC(=O)Nc2c(C)c(-c3cnn(C)c3)nn2-c2ccccc2)[C@H](c2ccnc(OC)c2)C1 (racemic) [Compound I-228] | 100 to 1000 |
| COCCN1C[C@@H](NC(=O)Nc2c(C)c(-c3cnn(C)c3)nn2-c2ccccc2)[C@H](c2cccc(C=O)c2)C1 (racemic) [Compound I-230] | 100 to 1000 |
| COCCN1C[C@@H](NC(=O)Nc2c(C)c(-c3cnn(C)c3)nn2-c2ccccc2)[C@H](c2ccc3occc3c2)C1 (racemic) [Compound I-232] | 100 to 1000 |
| CO[C@@H]1C[C@H](NC(=O)Nc2c(C)c(-c3cnn(C)c3)nn2-c2ccccc2)[C@@H](c2ccccc2)C1 (racemic) [Compound I-233] | > 1000 |
| CCOC(=O)C(COC)[C@@H]1C[C@@H](NC(=O)Nc2c(C)c(-c3cnn(C)c3)nn2-c2ccccc2)[C@H](c2ccccc2)C1 (mixture of isomers) [Compound I-238] | > 1000 |
| COCC(C(=O)OC)[C@@H]1C[C@@H](NC(=O)Nc2c(C)c(-c3cnn(C)c3)nn2-c2ccccc2)[C@H](c2ccccc2)C1 (mixture of isomers) [Compound I-243] | > 1000 |
| COCC(C(=O)OC)[C@@H]1C[C@@H](NC(=O)Nc2c(C)c(-c3cnn(C)c3)nn2-c2ccccc2)[C@H](c2ccccc2)C1 (mixture of isomers) [Compound I-244] | 100 to 1000 |
| COCCC1C[C@@H](NC(=O)Nc2cc(-c3ccc(C(=O)OC)cc3)nn2C)[C@H](c2ccccc2)C1 (relative stereo) [Compound I-181] | > 1000 |
| COCCC1C[C@@H](NC(=O)Nc2c(C)c(OCC(C)(C)O)nn2-c2ccccc2)[C@H](c2ccccc2)C1 (relative stereo) [Compound I-182] | 100 to 1000 |
| COCCC1C[C@@H](NC(=O)Nc2cc(C(F)(F)F)cnc2-c2ccccc2)[C@H](c2ccccc2)C1 (relative stereo) [Compound I-201] | < 100 |
| CCOc1nn(-c2ccccc2)c(NC(=O)N[C@@H]2CC(CCOC)C[C@H]2c2ccccc2)c1C (some centres unmarked) [Compound I-183] | < 100 |

Further lines, results first:

| IC50 [nM] | Compound |
| --- | --- |
| 100 to 1000 | Cc1c(-c2cnn(C)c2)nn(-c2ccccc2)c1NC(=O)N[C@@H]1CC(C)C[C@H]1c1ccc(F)c(F)c1 (some centres unmarked) [Compound I-163] |
| 100 to 1000 | COC(=O)C(c1ccco1)N1C[C@@H](NC(=O)Nc2c(C)c(-c3cnn(C)c3)nn2-c2ccccc2)[C@H](c2ccc(F)c(F)c2)C1 (some centres unmarked) [Compound I-177] |
| < 100 | CCN1C(CCOC)C[C@@H](NC(=O)Nc2c(C)c(-c3cnn(C)c3)nn2-c2ccccc2)[C@@H]1c1ccc(F)c(F)c1 (some centres unmarked) [Compound I-178] |
| 100 to 1000 | COCCC1C[C@@H](NC(=O)Nc2c(C)c(-c3cnn(C)c3)nn2-c2ccccc2)[C@H](c2ccc(F)c(F)c2)N1CC#N (some centres unmarked) [Compound I-179] |

molecular target: T1, human TrkA; assay: Test Example 2: Human TrkA Inhibition Assay; format: biochemical; settings: Test Example 2; human TrkA 2.5 nmol/L, ATP 500 μmol/L, 90 min at room temperature; read-out: TrkA inhibitory activity IC50
How it was run: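 Mobility-shift kinase assay: 90 min reaction at room temperature, stopped with EDTA buffer; phosphorylated and non-phosphorylated fluorescent substrate measured, conversion ratio calculated. Inhibition % normalised between DMSO-only wells and no-TrkA wells.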

| IC50 [nM] | Compound |
| --- | --- |
| 1800 | COCCN1C[C@@H](NC(=C[N+](=O)[O-])Nc2c(C)c(-c3cnn(C)c3)nn2-c2ccccc2)[C@H](c2ccccc2)C1 [Compound I-146] |
| 7000 | Cc1c(-c2cnn(C)c2)nn(-c2ccccc2)c1NC(=O)N[C@@H]1CC(O)C[C@H]1c1ccccc1 (some centres unmarked) [Compound I-168] |

same assay, conditions: human TrkA inhibition, Test Example 2; class symbols A/B/C; read-out: IC50_nM

| Compound | IC50 [nM] |
| --- | --- |
| COCCN1C[C@@H](NC(=NOC)Nc2c(C)c(-c3cnn(C)c3)nn2-c2ccccc2)[C@H](c2ccccc2)C1 [Compound I-144] | > 1000 |
| Cc1c(-c2cnn(C)c2)nn(-c2ccccc2)c1NC(=O)N[C@@H]1CN(Cc2nccn2C2CC2)C[C@H]1c1ccc(F)c(F)c1 [Compound I-147] | > 1000 |
| Cc1c(-c2cnn(C)c2)nn(-c2ccccc2)c1NC(=O)N[C@@H]1CC(C)(O)C[C@H]1c1ccccc1 (some centres unmarked) [Compound I-154] | > 1000 |
| COCC1(O)C[C@@H](NC(=O)Nc2c(C)c(-c3cnn(C)c3)nn2-c2ccccc2)[C@H](c2ccccc2)C1 (some centres unmarked) [Compound I-164] | > 1000 |
| Cc1c(-c2cnn(C)c2)nn(-c2ccccc2)c1NC(=O)N[C@@H]1CN(CCCc2ccccc2)C[C@H]1c1ccc(F)c(F)c1 [I 63] | > 1000 |

Continued, values first:

| IC50 [nM] | Compound |
| --- | --- |
| > 1000 | COCC(CNC(=N)N)N1C[C@@H](NC(=O)Nc2c(C)c(-c3cnn(C)c3)nn2-c2ccccc2)[C@H](c2ccc(F)c(F)c2)C1 (some centres unmarked) [Compound I-145] |
| > 1000 | Cc1c(-c2cnn(C)c2)nn(-c2ccccc2)c1NC(=O)N[C@@H]1CN(c2nn[nH]n2)C[C@H]1c1ccc(F)c(F)c1 [Compound I-148] |
| > 1000 | Cc1c(-c2cnn(C)c2)nn(-c2ccccc2)c1NC(=O)N[C@@H]1CN(c2nnn(C)n2)C[C@H]1c1ccc(F)c(F)c1 [Compound I-151] |
| > 1000 | Cc1c(-c2cnn(C)c2)nn(-c2ccccc2)c1NC(=O)N[C@@H]1CN(C2COC(=O)C2)C[C@H]1c1ccc(F)c(F)c1 (some centres unmarked) [Compound I-152] |
| > 1000 | COCC(C(=O)N(C)C)N1C[C@@H](NC(=O)Nc2c(C)c(-c3cnn(C)c3)nn2-c2ccccc2)[C@H](c2ccc(F)c(F)c2)C1 (some centres unmarked) [Compound I-155] |
| > 1000 | COCC(CN1CCOCC1)N1C[C@@H](NC(=O)Nc2c(C)c(-c3cnn(C)c3)nn2-c2ccccc2)[C@H](c2ccc(F)c(F)c2)C1 (some centres unmarked) [Compound I-158] |
| > 1000 | Cc1c(-c2cnn(C)c2)nn(-c2ccccc2)c1NC(=O)N[C@@H]1CN(Cc2nccn2C)C[C@H]1c1ccc(F)c(F)c1 [Compound I-159] |
| > 1000 | CCOC1CC(N2C[C@@H](NC(=O)Nc3c(C)c(-c4cnn(C)c4)nn3-c3ccccc3)[C@H](c3ccc(F)c(F)c3)C2)C1 (some centres unmarked) [Compound I-160] |
| > 1000 | Cc1c(-c2cnn(C)c2)nn(-c2ccccc2)c1NC(=O)N[C@@H]1CN(C2CCCC2)C[C@H]1c1ccc(F)c(F)c1 [Compound I-166] |
| > 1000 | COCC(C(=O)N(C)OC)N1C[C@@H](NC(=O)Nc2c(C)c(-c3cnn(C)c3)nn2-c2ccccc2)[C@H](c2ccc(F)c(F)c2)C1 (some centres unmarked) [Compound I-169] |
| > 1000 | Cc1c(-c2cnn(C)c2)nn(-c2ccccc2)c1NC(=O)N[C@@H]1CN(C#N)C[C@H]1c1ccc(F)c(F)c1 [Compound I-173] |
| > 1000 | COCC(C(=O)N(C)C)N1C[C@@H](NC(=O)Nc2c(C)c(-c3cnn(C)c3)nn2-c2ccccc2)[C@H](c2ccc(F)c(F)c2)C1 (some centres unmarked) [Compound I-174] |
| > 1000 | COC1CCCCC1N1C[C@@H](NC(=O)Nc2c(C)c(-c3cnn(C)c3)nn2-c2ccccc2)[C@H](c2ccc(F)c(F)c2)C1 (some centres unmarked) [Compound I-176] |
